Results published in patent US5059601A, “Imidazolone derivatives with activity on central nervous system and antihypertensive activity, preparation methods thereof, and pharmaceutical compositions containing them” (Istituto Lusofarmaco d'Italia S.p.A., priority 1989, dated 1991).

How the values were obtained:
SHR rat = test: antihypertensive activity in SHR rat after oral administration; assay type: in vivo; details: dose of 10 mg/kg/os
Source text: Said compounds have in vitro good affinity against D2, 5-HT2, α1 receptors determined towards [3H]Spiperone, [3H]-ketanserine, and [3H]-prazosine respectively, using the methods described by Y.Z. Fields, R.D. Reisine, H.I. Yamamura, Brain Research 136, 578 (1977); Y.E. Leysen, C.Y.E. Nyemegers, Y.M. Van Neuten, P.M. Endladurong, Mol Pharmacol. 21, 322 (1981); P. Greengrass, R. Bremner, Eur. J. Pharmacol. 55, 323 (1979). They show a reduced toxicity in vivo, a good activity on central nervous system in various behaviour tests (e.g. stereotypy caused by apomorfine, central dopaminergic neuronal firing) and a good antihypertensive activity (determined in SHR rat after oral administration using the method reported by J. Pfeffer and others, J. Lab. Clin. Med. 78, 957 (1971)).

[1] = toxicity in rat (DL50, oral); details: in vivo, read-out: toxicity in rat expressed as DL50

COc1ccccc1N1CCN(CCc2[nH]c(=O)[nH]c2-c2ccc(F)cc2)CC1 [4-(4-fluorophenyl)-1,3-dihydro-5-[2-(4-(2-methoxyphenyl)-1-piperazinyl)ethyl]-2H-imidazol-2-one]
decrease in systolic pressure (SHR rat): about 21% | LD50 [1]: > 2000 mg/kg
